pEC50, pIC50: −log10 of the molar value. Converted amounts (≈) assume the structure as drawn. Where two headings read alike, the source gives them in different places.
Experiments:
T. cruzi = T. cruzi growth inhibition; assay type: cell-based, Trypanosoma cruzi; details: read-out: (E) T. cruzi EC50
[1] = system: E. faecium VRE (ATCC 51559); assay: MIC susceptibility testing; assay type: cell-based, Enterococcus faecium; details: Enterococcus faecium, E. faecium ATCC 51559; read-out: (I) E. faecium (ATCC 51559) MIC
Procedure, shortened: (§1)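 CLSI broth microdilution with two-fold compound dilutions, in triplicate; cells added in medium at 1×10^6 CFUs/mL, DMSO ≤0.5%. Media: MHB for S. aureus, CA-MHB for E. coli and E. faecium, CA-MHB plus 3% laked horse blood for S. pyogenes (5% CO2).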

[2] = system: S. aureus MRSA (ATCC 33591); assay: MIC susceptibility testing; assay type: cell-based, Staphylococcus aureus; details: MRSA ATCC33591; for MIC: Staphylococcus aureus, read-out: (G) MRSA (ATCC33591) MIC
Procedure, shortened: as §1

MetRS (C. parvum) = MetRS (C. parvum) (Cryptosporidium parvum, UniProt Q5CVN0); assay: MetRS (C. parvum) enzyme inhibition; assay type: biochemical; details: read-out: (C) MetRS (C. parvum) IC50
[3] = system: G. lamblia (ATCC GL50803); assay: G. lamblia growth inhibition; assay type: cell-based; details: Giardia duodenalis, read-out: (K) G. lamblia (ATCC GL50803) EC50
MetRS (T. brucei) = molecular target: T1, MetRS (T. brucei) (Trypanosoma brucei brucei, UniProt Q38C91); assay: MetRS (T. brucei) enzyme inhibition; assay type: biochemical
T1 sequence (Q38C91 1-773): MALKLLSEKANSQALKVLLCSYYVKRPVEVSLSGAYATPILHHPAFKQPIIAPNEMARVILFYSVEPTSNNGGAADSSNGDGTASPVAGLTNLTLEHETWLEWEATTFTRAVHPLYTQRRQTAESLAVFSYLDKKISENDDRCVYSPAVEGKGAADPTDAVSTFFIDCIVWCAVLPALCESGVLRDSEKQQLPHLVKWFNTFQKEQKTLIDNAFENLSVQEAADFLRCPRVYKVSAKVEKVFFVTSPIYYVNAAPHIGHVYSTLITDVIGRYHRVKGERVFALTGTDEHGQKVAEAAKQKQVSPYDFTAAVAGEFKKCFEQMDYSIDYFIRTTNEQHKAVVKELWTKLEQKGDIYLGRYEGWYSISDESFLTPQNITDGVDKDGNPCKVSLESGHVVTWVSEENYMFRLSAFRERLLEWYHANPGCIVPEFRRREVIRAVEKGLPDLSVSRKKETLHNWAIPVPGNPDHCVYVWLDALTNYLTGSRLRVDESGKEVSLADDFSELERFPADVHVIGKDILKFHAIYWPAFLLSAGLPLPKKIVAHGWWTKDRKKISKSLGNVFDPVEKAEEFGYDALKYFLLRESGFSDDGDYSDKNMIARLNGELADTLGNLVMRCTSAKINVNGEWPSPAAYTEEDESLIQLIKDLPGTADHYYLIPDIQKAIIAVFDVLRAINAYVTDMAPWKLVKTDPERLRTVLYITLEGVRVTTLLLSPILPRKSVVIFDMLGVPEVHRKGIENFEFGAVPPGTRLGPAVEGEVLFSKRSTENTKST

[4] = molecular target: recombinant S. aureus MetRS enzyme (Staphylococcus aureus, UniProt A0A0H2XID2); assay: Inhibition of SaMetRS, ATP depletion assay; assay type: biochemical; details: read-out: (B) MetRS (S. aureus) IC50
Procedure, shortened: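 IC50 values come from sigmoidal fits of percent inhibition, based on ATP left after 120 min as measured by Kinase-Glo. Substrates were 20 μM L-methionine and 150 nM ATP, added after compounds sat 15 min at room temperature with 25 nM His-tagged SaMetRS, bulk E. coli tRNA, pH 7.9 HEPES buffer and 2% DMSO.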

[5] = system: S. aureus MSSA (ATCC 29213); assay: MIC susceptibility testing; assay type: cell-based, Staphylococcus aureus; details: Staphylococcus aureus, S. aureus ATCC 29213; read-out: (F) S. aureus (ATCC 29213) MIC
C. parvum = C. parvum growth inhibition; assay type: cell-based, Cryptosporidium parvum; details: read-out: (J) C. parvum EC50
T. brucei = T. brucei growth inhibition; assay type: cell-based, Trypanosoma brucei; details: read-out: (D) T. brucei EC50

Sequence of recombinant S. aureus MetRS enzyme (A0A0H2XID2 2-657): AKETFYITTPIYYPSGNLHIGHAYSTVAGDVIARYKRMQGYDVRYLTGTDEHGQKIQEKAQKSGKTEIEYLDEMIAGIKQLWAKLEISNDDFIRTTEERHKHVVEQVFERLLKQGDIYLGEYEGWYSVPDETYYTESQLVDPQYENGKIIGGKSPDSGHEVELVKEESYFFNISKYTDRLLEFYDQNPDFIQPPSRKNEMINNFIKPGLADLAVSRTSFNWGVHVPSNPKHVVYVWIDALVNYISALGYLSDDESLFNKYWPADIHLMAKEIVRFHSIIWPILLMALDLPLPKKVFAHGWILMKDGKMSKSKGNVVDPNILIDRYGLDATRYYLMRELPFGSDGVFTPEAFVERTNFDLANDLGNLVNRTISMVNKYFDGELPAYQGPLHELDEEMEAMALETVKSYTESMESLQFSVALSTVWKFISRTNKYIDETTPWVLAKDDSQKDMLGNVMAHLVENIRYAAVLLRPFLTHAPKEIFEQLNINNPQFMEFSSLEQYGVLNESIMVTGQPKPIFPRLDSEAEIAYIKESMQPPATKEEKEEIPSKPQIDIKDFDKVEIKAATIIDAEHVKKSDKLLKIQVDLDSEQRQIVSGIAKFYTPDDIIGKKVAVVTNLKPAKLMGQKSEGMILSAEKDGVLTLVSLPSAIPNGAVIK
Sequence of MetRS (C. parvum) (Q5CVN0 entry or part of it): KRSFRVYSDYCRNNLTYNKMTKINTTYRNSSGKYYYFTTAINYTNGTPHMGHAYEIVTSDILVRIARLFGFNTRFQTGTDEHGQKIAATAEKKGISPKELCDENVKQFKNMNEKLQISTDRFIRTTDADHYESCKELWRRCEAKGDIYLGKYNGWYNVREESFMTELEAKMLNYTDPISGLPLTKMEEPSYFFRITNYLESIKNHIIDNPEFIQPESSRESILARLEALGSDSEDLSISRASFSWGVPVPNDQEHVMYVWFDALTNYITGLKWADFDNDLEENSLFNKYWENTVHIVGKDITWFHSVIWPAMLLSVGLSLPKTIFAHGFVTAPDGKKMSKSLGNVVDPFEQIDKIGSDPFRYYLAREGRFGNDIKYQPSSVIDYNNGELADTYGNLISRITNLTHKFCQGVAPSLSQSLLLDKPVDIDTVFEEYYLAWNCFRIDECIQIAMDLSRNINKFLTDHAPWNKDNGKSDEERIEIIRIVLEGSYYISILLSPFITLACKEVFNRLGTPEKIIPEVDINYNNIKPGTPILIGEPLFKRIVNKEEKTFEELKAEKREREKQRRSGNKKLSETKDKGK

Row | SMILES | pEC50 (T. cruzi; Trypanosoma cruzi) | pEC50 (T. cruzi) | MIC [1] [µg/mL] | (G) MRSA (ATCC33591) MIC [2] [µg/mL] | MIC [2] [µg/mL] | pIC50 (MetRS (C. parvum)) | pEC50 [3] | pIC50 (MetRS (T. brucei)) | pIC50 [4] | MIC [5] [µg/mL] | pEC50 (C. parvum; Cryptosporidium parvum) | pEC50 (C. parvum) | pEC50 (T. brucei; Trypanosoma brucei) | pEC50 (T. brucei)
1 | CCn1c(Cc2ccc(Cl)cc2Cl)cn(Cc2nc3ccc(Cl)nc3[nH]2)c1=O [Compound 2067, 1-({5-chloro-1H-imidazo[4,5-b]pyridin-2-yl}methyl)-4-[(2,4-dichlorophenyl)methyl]-3-ethyl-2,3-dihydro-1H-imidazol-2-one] | 7.78 | 7.49 | > 2 | 1.16 | 1.35 (≈ 3.09 µM) | > 7.40 | 6.17 | > 7.40 | > 7.60 |  |  |  |  | 
2 | CC(C)n1c(Cc2ccc(Cl)cc2Cl)cn(Cc2nc3ccc(F)nc3[nH]2)c1=O [Compound 2080, 4-[(2,4-dichlorophenyl)methyl]-1-({5-fluoro-1H-imidazo[4,5-b]pyridin-2-yl}methyl)-3-(propan-2-yl)-2,3-dihydro-1H-imidazol-2-one] | 6.66 |  |  |  | 1.4 (≈ 3.22 µM) | > 7.40 | 5.41 | > 7.40 |  | 0.999 (≈ 2.3 µM) | 6.21 | 6.36 |  | 
3 | COc1ccc(-c2cccc3nc(Cc4nc5nc(Cl)ccc5[nH]4)cn23)c(Cl)c1 [Compound 2119, 2-({5-chloro-1H-imidazo[4,5-b]pyridin-2-yl}methyl)-5-(2-chloro-4-methoxyphenyl)imidazo[1,2-a]pyridine] | 6.71 |  | 0.727 (≈ 1.71 µM) |  | 1.04 (≈ 2.45 µM) | > 7.40 | 7.22 | > 7.40 | > 7.60 | 0.285 (≈ 0.672 µM) | 6.32 | 6.20 | 7.75 | 7.53
4 | COc1ccc(-c2cccc3nc(Cc4nc5nc(F)ccc5[nH]4)cn23)c(Cl)c1 [Compound 2122, 5-(2-chloro-4-methoxyphenyl)-2-({5-fluoro-1H-imidazo[4,5-b]pyridin-2-yl}methyl)imidazo[1,2-a]pyridine] | 6.15 |  | 0.263 (≈ 0.645 µM) |  | 0.909 (≈ 2.23 µM) | > 7.40 | 6.66 | > 7.40 | > 7.60 | 0.419 (≈ 1.03 µM) | 6.01 | 6.22 | 7.23 | 

From patent US11584744B2 (UNIVERSITY OF WASHINGTON, priority 2017, dated 2023)
